{"source": "patent US6146853A", "about": "“Cyclic depsipeptide PF 1022G” (Meiji Seika Kaisha Ltd., priority 1996, dated 2000)", "key": {"[1]": {"assay": "Solubilities (physico-chemical properties)", "assay_type": "physicochemical"}, "[2]": {"assay": "Anthelmintic activities (general statement)", "details": "no parasite or test named"}}, "data": [{"smiles": "CC(C)C[C@H]1C(=O)O[C@H](C)C(=O)N(C)[C@@H](CC(C)C)C(=O)O[C@H](C)C(=O)N(C)[C@@H](CC(C)C)C(=O)O[C@H](C)C(=O)N(C)[C@@H](CC(C)C)C(=O)O[C@H](C)C(=O)N1C", "note": "[PF 1022F substance]", "values": [{"measurement": "Solubilities: soluble in", "setting": "[1]; chloroform, acetone, ethyl acetate, methanol and dimethylsulfoxide", "value": "Soluble"}, {"measurement": "Solubilities: insoluble in", "setting": "[1]; water and n-hexane", "value": "Insoluble"}, {"measurement": "solubility in water", "setting": "[1]; water, statement in the recovery description", "value": "insoluble in water"}, {"measurement": "anthelmintic activities", "setting": "[2]", "value": "having anthelmintic activities"}]}]}
